# Data taken from article PMC4295030, “Synthesis and molecular docking of novel non-competitive antagonists of GluK2 receptor” (Medicinal Chemistry Research, 2014).
# Test system: T1, GluK2 receptor
# T1 construct: gene GRIK2
# Assay: aequorin luminescence Ca2+ influx assay in HEK293 cells
# Assay type: cell-based
# Conditions: 275 μM glutamate as agonist, Ringer buffer + 100 mM CaCl2
# From the text: aequorin luminescence Ca2+ influx assay in HEK293 cells on GluK2 receptor
Structure (SMILES),IC50 (non-competitive),"GluK2 inhibition at 100 µM, %"
"COc1ccc2c(c1)c(C)c(-c1cccs1)n2C [compound 3, 5-methoxy-1,3-dimethyl-2-(2-thienyl)indole]",12 µM,
"O=C1CCCc2c1c1ccccc1n2Cc1ccc(Cl)cc1 [compound 7, 9-(4-chlorobenzyl)-4-oxo-1,2,3,4-tetrahydrocarbazole]",,22%
